Laboratory results: patent US20240197761A1, “FUCOSYLATION AND IMMUNE MODULATION IN CANCER” (H. LEE MOFFITT CANCER CENTER AND RESEARCH INSTITUTE, INC., priority 2021, published 2024)

System: SW1 tumors
Experiment: Control vs. L-fucose ± FTY720 model: tumor growth and flow cytometric profiling of tumors and lymph nodes (Table 1)
Format: in vivo, C3H/HeN mice
Description: FIGS. 15A-15E Lymph node egress is necessary for L-fucose-triggered tumor suppression; L-fucose increases intratumoral CD4+T stem and central memory cells. (a) Immune subpopulations markers use to profile by flow cytometry. (b) Volumetric growth curves for SW1 tumors in C3H/HeN mice fed without (Ctl) or with L-fucose (LF) and treated with FTY720 (Ctl mice administered FTY720: (FTY); LF-supplemented mice administered FTY720: (L+F)). FTY720 was administered at 20 μg per mouse every 2 days starting on Day 12, just prior to the initiation of LF (c) Pie charts showing ratios of intratumoral or lymph node-resident CD4+ or CD8+T cell subpopulations, as well as DC subtypes from mice at Day 14, 28, and 42 (each pie chart represents 4-5 mice). Assessment of cytotoxic CD4+ T cell populations (CRTAM+) and cytotoxic CD8+ T cell populations (GrzB+) from tumors at Day 28 (d) and Day 42 (e). The tumor growth curves are means±SEM from ≥7 mice per group. *=p<0.05.
Tumors of SW1 or SM1 melanoma cells from […] or C57BL/6 mice, respectively) were digested using 1× tumor digest buffer (0.5 mg/mL Collagenase I, 0.5 mg/mL Collagenase IV, 0.25 mg/mL Hyalyronidase V, 0.1 mg/mL DNAse I in HBSS (Millipore Sigma (St. Louis, MO)). Tumors were homogenized using the Miltenyi MACs dissociator. Red blood cells were lysed using ACK lysis buffer (Life Technologies, (Grand Island, NY)). Tumor homogenate cells were counted using a standard hemocytometer.
Total TILs were gated first to single cells (based on forward scatter height vs width, followed by side scatter height vs. width). Live cells were gated from the Zombie negative population from the population above. TILs were gated based on splenocyte size from a control spleen. Individual immune subpopulations were sub-gated from the total TIL population using the following staining criteria: CD3+ for CD3+ T cells; CD3+/CD4+/CD8− for CD4+T cells; CD3+/CD4−/CD8+ for CD8+ T cells, CD11c+/CD11b+ for DCs; either NK1.1 (for C57/BL6 mice) or DX5 (for C3H/HeJ) for NK cells; CD11b+/GR1+ for MDSC-like cells; and F4/80+ for macrophages. Single-cell suspensions from tumor and spleen tissue were stained with Live/Dead Zombie NIR (Biolegend, (San Diego, CA)) at 1:1,000 in PBS for 20 min. Cell suspensions were spun down and stained with the following with antibodies at 0.5 μg/ml per antibody: APC anti-mouse CD3, Pacific Blue anti-mouse CD4, BV785 anti-mouse CD8, PerCP anti-mouse CD25, FITC anti-mouse F4/80, PeCy7 anti-mouse CD11c, PE anti-mouse NK1.1 or PE anti-mouse DX5, and PerCP-Cy5.5 anti-mouse CD11 b. After staining, the cells were washed and fixed (2% formaldehyde), followed by another wash and flow cytometric analysis. The compensation controls were prepared using 0.5 μg/mL of each antibody with UltraComp eBeads, (ThermoFisher Scientific (Waltham, MA)). All samples were subject to flow cytometric profiling using a LSR Flow Cytometer (BD Biosciences (San Jose, CA)) and analysis as indicated using FlowJo software (BD Biosciences (San Jose, CA)).
SW1 or SM1 mouse melanoma cells were injected into syngeneic C3H/HeN (or NSG) female or C57BL/6 male mice, respectively. Cells were injected as follows: parental SW1 cells for FIG. 13A; parental SM1 cells for FIG. 13E; SW1 cells stably expressing either empty vector (EV) or mouse fucose kinase (mFuk) for FIG. 1L; and parental SW1 cells for FIG. 13M. FTY720 was administered at 20 μg every 2 days starting on Day 12, just prior to the initiation of LF, until endpoint.

SMILES: C[C@H](O)[C@@H](O)[C@@H](O)[C@H](O)C=O [L-fucose]
- cytotoxic CD4+T cells (CRTAM+) (Day 28): transiently but significantly increased
- CD4 central memory, average # of cells (Day 28, lymph nodes): 2289.20 per 10^6 cells of total tumor
- CD4 effector memory, average # of cells (Day 28, lymph nodes): 445.15 per 10^6 cells of total tumor
- CD4 naïve, average # of cells (Day 28, lymph nodes): 9286.89 per 10^6 cells of total tumor
- CD4 stem central memory, average # of cells (Day 28, lymph nodes): 53601.81 per 10^6 cells of total tumor
- CD8 central memory, average # of cells (Day 28, lymph nodes): 295.92 per 10^6 cells of total tumor
- CD8 effector memory, average # of cells (Day 28, lymph nodes): 888.80 per 10^6 cells of total tumor
- CD8 naïve, average # of cells (Day 28, lymph nodes): 18072.26 per 10^6 cells of total tumor
- CD8 stem central memory, average # of cells (Day 28, lymph nodes): 980.96 per 10^6 cells of total tumor
- cDC1, average # of cells (Day 28, lymph nodes): 359.10 per 10^6 cells of total tumor
- cDC2, average # of cells (Day 28, lymph nodes): 743.69 per 10^6 cells of total tumor
- moDC, average # of cells (Day 28, lymph nodes): 37.66 per 10^6 cells of total tumor
- CD4 central memory, average # of cells (Day 28, tumors): 6.04 per 10^6 cells of total tumor
- CD4 effector memory, average # of cells (Day 28, tumors): 568.19 per 10^6 cells of total tumor
- CD4 naïve, average # of cells (Day 28, tumors): 30.44 per 10^6 cells of total tumor
- CD4 stem central memory, average # of cells (Day 28, tumors): 5.59 per 10^6 cells of total tumor
- CD8 central memory, average # of cells (Day 28, tumors): 1.24 per 10^6 cells of total tumor
- CD8 effector memory, average # of cells (Day 28, tumors): 108.29 per 10^6 cells of total tumor
- CD8 naïve, average # of cells (Day 28, tumors): 34.60 per 10^6 cells of total tumor
- CD8 stem central memory, average # of cells (Day 28, tumors): 0.00 per 10^6 cells of total tumor
- cDC1, average # of cells (Day 28, tumors): 2301.44 per 10^6 cells of total tumor
- cDC2, average # of cells (Day 28, tumors): 10732.04 per 10^6 cells of total tumor
- moDC, average # of cells (Day 28, tumors): 20903.90 per 10^6 cells of total tumor
- CD4 central memory, average # of cells (Day 42, lymph nodes): 1741.12 per 10^6 cells of total tumor
- CD4 effector memory, average # of cells (Day 42, lymph nodes): 5032.79 per 10^6 cells of total tumor
- CD4 naïve, average # of cells (Day 42, lymph nodes): 105779.76 per 10^6 cells of total tumor
- CD4 stem central memory, average # of cells (Day 42, lymph nodes): 1587.46 per 10^6 cells of total tumor
- CD8 central memory, average # of cells (Day 42, lymph nodes): 1741.12 per 10^6 cells of total tumor
- CD8 effector memory, average # of cells (Day 42, lymph nodes): 5032.79 per 10^6 cells of total tumor
- CD8 naïve, average # of cells (Day 42, lymph nodes): 105779.76 per 10^6 cells of total tumor
- CD8 stem central memory, average # of cells (Day 42, lymph nodes): 1587.46 per 10^6 cells of total tumor
- cDC1, average # of cells (Day 42, lymph nodes): 2141.34 per 10^6 cells of total tumor
- cDC2, average # of cells (Day 42, lymph nodes): 4375.69 per 10^6 cells of total tumor
- moDC, average # of cells (Day 42, lymph nodes): 1201.44 per 10^6 cells of total tumor
- CD4 central memory, average # of cells (Day 42, tumors): 38.18 per 10^6 cells of total tumor
- CD4 effector memory, average # of cells (Day 42, tumors): 111.09 per 10^6 cells of total tumor
- CD4 naïve, average # of cells (Day 42, tumors): 82.01 per 10^6 cells of total tumor
- CD4 stem central memory, average # of cells (Day 42, tumors): 16.67 per 10^6 cells of total tumor
- CD8 central memory, average # of cells (Day 42, tumors): 13.46 per 10^6 cells of total tumor
- CD8 effector memory, average # of cells (Day 42, tumors): 246.44 per 10^6 cells of total tumor
- CD8 naïve, average # of cells (Day 42, tumors): 109.29 per 10^6 cells of total tumor
- CD8 stem central memory, average # of cells (Day 42, tumors): 0.00 per 10^6 cells of total tumor
- cDC1, average # of cells (Day 42, tumors): 648.96 per 10^6 cells of total tumor
- cDC2, average # of cells (Day 42, tumors): 78.44 per 10^6 cells of total tumor
- moDC, average # of cells (Day 42, tumors): 169.08 per 10^6 cells of total tumor
- intratumoral CD4+T central and effector memory subpopulations (FIG. 15c): increases
- intratumoral monocyte-derived DCs (moDCs) (FIG. 15c): significantly increased
- lymph node cDC2s (FIG. 15c): significantly increased
- L-fuc-triggered tumor suppression (with FTY720 (inhibition of lymph node egress)): completely abrogated
